Assay results from ChEMBL document CHEMBL5725522, “Inhibitors of bruton's tyrosine kinase” (2017).

Target: Tyrosine-protein kinase BTK (Homo sapiens, UniProt Q06187)
Assay: TR-FRET (Time Resolved FRET) Assay: This BTK competition assay measures compound potency (IC50) for the inactivated state of Bruton's Tyrosine Kinase using FRET (Förster/Fluorescence Resonance Energy Transfer) technology. The BTK-Eu complex was incubated on ice one hour prior to use at a starting concentration of 50 nM BTK-Bioease: 10 nM Eu-streptavidin (Perkin-Elmer Catalog#AD0062). The assay buffer consisted of 20 mM HEPES (pH 7.15), 0.1 mM DTT, 10 mM MgCl2, 0.5 mg/ml BSA with 3% Kinase Stabilizer (Fremont Biosolutions, Catalog #STB-K02). After 1 h, the reaction mixture from above was diluted 10 fold in assay buffer to make 5 nM BTK: 1 nM Eu-Streptavidin complex (donor fluorophore). 18 μl of a mixture of 0.11 nM BTK-Eu and 0.11 nM Kinase Tracer 178 (Invitrogen, Catalog #PV5593,) with BTK-Eu alone as no negative control, was then dispensed into 384-well flat bottom plates (Greiner, 784076). Compounds to be tested in assay were prepared as 10× concentrations and serial dilution in half-log increments was performed in DMSO so as to generate 10 point curves. […]

Sequence of Tyrosine-protein kinase BTK (Q06187 whole entry): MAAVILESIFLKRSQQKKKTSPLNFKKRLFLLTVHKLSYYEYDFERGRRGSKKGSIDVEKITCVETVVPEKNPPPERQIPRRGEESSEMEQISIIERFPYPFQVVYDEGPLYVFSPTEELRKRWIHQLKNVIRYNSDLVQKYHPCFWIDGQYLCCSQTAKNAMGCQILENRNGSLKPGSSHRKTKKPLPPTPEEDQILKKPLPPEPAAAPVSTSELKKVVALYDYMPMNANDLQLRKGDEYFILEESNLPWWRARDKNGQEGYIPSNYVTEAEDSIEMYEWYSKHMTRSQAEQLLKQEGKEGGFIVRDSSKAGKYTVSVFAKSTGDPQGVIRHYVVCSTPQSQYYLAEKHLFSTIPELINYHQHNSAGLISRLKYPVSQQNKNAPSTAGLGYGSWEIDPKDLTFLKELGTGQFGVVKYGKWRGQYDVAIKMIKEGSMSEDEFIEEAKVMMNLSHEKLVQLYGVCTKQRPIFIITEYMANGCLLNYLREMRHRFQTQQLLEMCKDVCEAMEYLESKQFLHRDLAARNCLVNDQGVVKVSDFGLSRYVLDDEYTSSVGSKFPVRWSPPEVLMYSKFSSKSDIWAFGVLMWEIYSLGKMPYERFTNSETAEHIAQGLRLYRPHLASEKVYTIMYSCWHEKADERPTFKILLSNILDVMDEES

| IC50 [nM] | Structure (SMILES) |
| --- | --- |
| > 100000 | O=C(c1cc2cc(C(=O)N3CCOCC3)ccc2[nH]1)c1cnn2c1[nH]c(=O)c1cc(Oc3cccc(F)c3F)ccc12 |
| 2.9 | CN1CCC(NC(=O)c2ccc3[nH]c(C(=O)c4cnn(-c5ccc(Oc6ccccc6C(=O)N(C)C)cc5Cl)c4N)cc3c2)C1 (configuration not stated) |
